# Key:
# Test in all cases: In vitro MIC, broth dilution
# Assay type in all cases: cell-based
# [1] = tested on: E. coli GC 4559; conditions: Escherichia coli, GC4559; E. coli GC 4559; read-out: MIC
# [2] = tested on: E. coli GC 4560; conditions: Escherichia coli, GC4560; E. coli GC 4560; read-out: MIC
# [3] = tested on: E. coli GC 3226; conditions: Escherichia coli, GC3226; E. coli GC 3226; read-out: MIC
# [4] = tested on: S. marcescens GC 4077; conditions: Serratia marcescens, GC4077; S. marcescens GC 4077; read-out: MIC
# [5] = tested on: C. albicans GC 3066; conditions: Candida albicans, GC3066; C. albicans GC 3066; read-out: MIC
# [6] = tested on: M. morganii GC 4531; conditions: Morganella morganii, GC4531; M. morganii GC 4531; read-out: MIC
# [7] = tested on: K. pneumoniae GC 4534; conditions: Klebsiella pneumoniae, GC4534; K. pneumoniae GC 4534; read-out: MIC
# [8] = tested on: E. cloacae GC 3783; conditions: Enterobacter cloacae, GC3783; E. cloacae GC 3783; read-out: MIC
# [9] = tested on: P. aeruginosa GC 4532; conditions: Pseudomonas aeruginosa, GC4532; P. aeruginosa GC 4532; read-out: MIC
# [10] = tested on: CNS GC 4537; conditions: CNS GC 4537; read-out: MIC
# Protocol: (§1) The minimum inhibitory concentration (MIC), the lowest concentration of the antibiotic which inhibits growth of the test organism, is determined by the broth dilution method using Muller-Hinton II […] (Baltimore Biological Laboratories) following the recommendations of National Committee for Clinical Laboratory Standards. [Reference for the Methods for dilution antimicrobial susceptibility tests for bacteria that grow aerobically: National Committee for Clinical Laboratory Standards, 1997. Approved standard M7-A National Committee for Clinical Laboratory Standards, Wayne, Pa.] An inoculum level of 5×10^5 CFU/ml, and a range of antibiotic concentrations (64-0.06 μg/ml) is used. The MIC is determined after the microtiter plates are incubated for 18 hours at 35° C. in an ambient air incubator. The test organisms comprise a spectrum of gram-positive bacteria including Staphylococcus sp., Streptococcus sp. and Enterococcus sp. These organisms include recent clinical isolates that are resistant to methicillin, penicillin and vancomycin.
# [11] = tested on: CNS GC 4538; conditions: CNS GC 4538; read-out: MIC
# Protocol: as §1
# [12] = tested on: CNS GC 4547; conditions: CNS GC 4547; read-out: MIC
# Protocol: as §1
# [13] = tested on: E. faecalis GC 2242; conditions: Enterococcus faecalis, GC2242; E. faecalis GC 2242; read-out: MIC
# Protocol: as §1
# [14] = tested on: E. faecalis GC 4555; conditions: Enterococcus faecalis, GC4555; E. faecalis GC 4555; read-out: MIC
# Protocol: as §1
# [15] = tested on: E. faecalis GC 842; conditions: Enterococcus faecalis, GC842; E. faecalis GC 842; read-out: MIC
# Protocol: as §1
# [16] = tested on: S. aureus GC 1131; conditions: Staphylococcus aureus, GC1131; S. aureus GC 1131; read-out: MIC
# Protocol: as §1
# [17] = tested on: S. aureus GC 2216; conditions: Staphylococcus aureus, GC2216; S. aureus GC 2216; read-out: MIC
# Protocol: as §1
# [18] = tested on: S. aureus GC 4536; conditions: Staphylococcus aureus, GC4536; S. aureus GC 4536; read-out: MIC
# Protocol: as §1
# [19] = tested on: E. coli GC 2203; conditions: Escherichia coli, GC2203; E. coli GC 2203; read-out: MIC
# [20] = tested on: P. aeruginosa GC 2214; conditions: Pseudomonas aeruginosa, GC2214; P. aeruginosa GC 2214; read-out: MIC
Compound,MIC [1] [µg/mL],MIC [2] [µg/mL],MIC [3] [µg/mL],MIC [4] [µg/mL],MIC [5] [µg/mL],MIC [6] [µg/mL],MIC [7] [µg/mL],MIC [8] [µg/mL],MIC [9] [µg/mL],MIC [10] [µg/mL],MIC [11] [µg/mL],MIC [12] [µg/mL],MIC [13] [µg/mL],MIC [14] [µg/mL],MIC [15] [µg/mL],MIC [16] [µg/mL],MIC [17] [µg/mL],MIC [18] [µg/mL],MIC [19] [µg/mL],MIC [20] [µg/mL]
"COc1ccc(Cn2c(=O)ccn([C@@H]3OC([C@H](O)[C@H](NCCCNC(=O)[C@H](C)NC(=O)OCc4ccccc4)C(=O)OC(C)(C)C)[C@@H](O[Si](C)(C)C(C)(C)C)[C@H]3O[Si](C)(C)C(C)(C)C)c2=O)cc1 (stereo partly drawn) [Example 14, tert-Butyl (5S,12S)-12-[(R)-[(3R,4R,5R)-3,4-bis{[tert-butyl(dimethyl)silyl]oxy}-5-(3-(4-methoxybenzyl)-2,4-dioxo-3,4-dihydro-1(2H)-pyrimidinyl)tetrahydro-2-furanyl](hydroxy)methyl]-5-methyl-3,6-dioxo-1-phenyl-2-oxa-4,7,11-triazatridecan-13-oate]",> 128,128,> 128,> 128,128,128,> 128,> 128,128,> 128,> 128,128,128,128,> 128,> 128,> 128,> 128,> 128,128
"COc1ccc(Cn2c(=O)ccn([C@@H]3OC([C@H](O)[C@H](NCCCNC(=O)[C@@H](N)Cc4ccccc4)C(=O)OC(C)(C)C)[C@@H](O[Si](C)(C)C(C)(C)C)[C@H]3O[Si](C)(C)C(C)(C)C)c2=O)cc1 (stereo partly drawn) [Example 13, tert-Butyl (2S,3R)-2-[(3-{[(2S)-2-amino-3-phenylpropanoyl]amino}propyl)amino]-3-[(3R,4R,5R)-3,4-bis{[tert-butyl(dimethyl)silyl]oxy}-5-(3-(4-methoxybenzyl)-2,4-dioxo-3,4-dihydro-1(2H)-pyrimidinyl)tetrahydro-2-furanyl]-3-hydroxypropanoate]",> 128,> 128,> 128,> 128,> 128,> 128,> 128,> 128,> 128,> 128,> 128,> 128,16,> 128,128,> 128,> 128,> 128,> 128,> 128
COc1ccc(Cn2c(=O)ccn([C@@H]3OC([C@H](O)[C@H](NCCCNC(=O)CCCCCCCCCCN)C(=O)OC(C)(C)C)[C@@H](O[Si](C)(C)C(C)(C)C)[C@H]3O[Si](C)(C)C(C)(C)C)c2=O)cc1 (stereo partly drawn) [Example 25],> 128,128,> 128,128,128,128,> 128,> 128,128,64,64,128,64,128,128,128,128,128,> 128,128
